The text below walks through data of patent EP0168658A1, “Pyrrolecarboxylic acid derivative having analgesic activity, preparation thereof and compositions therefrom” (POLI INDUSTRIA CHIMICA S.p.A., priority 1984, dated 1986).

The test system of series [1] is mouse. Kind of series: Phenylquinone test, analgesic activity by the oral route. In kind it is in vivo. The procedure:
(§1) The analgesic activity of the compound of formula I by the oral route, has been determined in the mouse using the following tests: • - Phenylquinone test (Hendershot and Forsaith - J. Pharma- col. Exptl. Ther. 123, 237 (1959)); • - Hot-plate test. Male albino mice, treated with increasing doses of the compound under exam, are placed on a plate thermostatized at 55°C. An effective dose 50 (ED50) is defined as the dose inducing a 50% increase of the reaction time to the pain stimulus.

The test system of another series is Male albino mice. Kind of series: Hot-plate test (plate at 55°C), analgesic activity by the oral route. Format: in vivo, mouse. Particulars: read-out: Hot place EX50. The procedure:
as §1
Background: Thermal pain tests record how soon the animal reacts.

Series [2] concerns prostaglandine-synthetase. Kind of series: Prostaglandine-synthetase inhibitory activity. In kind it is biochemical.
The nature of another series: Acute toxicity per os. Conditions: in vivo, po, mouse, at the 14th observation day. The text has this: The acute toxicity per os is expressed as LD50 at the 14th observation day.
Series [3] relates to mouse. Kind of series: Jumping by nalorphine (physical addiction). Format: in vivo.
In series [4] the test system is cyclooxygenase. Kind of series: Cyclooxygenase inhibitory activity. In kind it is biochemical.
The test system of series [5] is cyclooxygenase. Conditions: background statement on the known drug; cited from earlier work.
Series [6] has as its system prostaglandine-synthetase. Particulars: background statement on the known drug; cited from earlier work.

Read-outs that look alike come from different tables or passages of the source.

For the compound `COc1ccc2c3c1O[C@H]1[C@@H](O)C=C[C@H]4[C@@H](C2)N(C)CC[C@@]341.Cl` [Codeine HCl, codeine hydrochloride, reference compound], the ED50 was determined as 5.6 mg/kg in the series on mouse [1] and 25 mg/kg in the series on Male albino mice (Mus musculus, po).
Broadly, the LD50 is the dose at which mortality reaches 50%. `Cc1c(C(=O)O)c(C)n(C)c1C(=O)c1ccc(F)cc1` [Compound I, 5-(4-fluoro-benzoyl)-1,2,4-trimethyl-3-pyrrolcarboxylic acid]: the prostaglandine-synthetase inhibitory activity entry in series [2] was “without cyclooxygenase and prostaglandine-synthetase inhibitory activity”. For the same compound, the LD50 at 336 h in “Acute toxicity per os” was more than 1600 mg/kg. Besides, the ED50 in the series on mouse [1] turned out to be 2.1 mg/kg; in the series on Male albino mice (mouse, oral route, plate at 55°C, dose inducing a 50% increase of the reaction time to the pain stimulus), 3.5 mg/kg. Moreover, the jumping by nalorphine entry with mouse [3] is reported as “does not induce”. Also, the cyclooxygenase inhibitory activity result in the series on cyclooxygenase [4] is “without cyclooxygenase and prostaglandine-synthetase inhibitory activity”.
On to `Cc1cc(CC(=O)O)n(C)c1C(=O)c1ccc(Cl)cc1` [zomepirac, 5-(p-chlorobenzoyl)-l,4-dimethylpyrrole-2-acetic acid], for which the “capacity of inhibiting cyclooxygenase” value in the series with cyclooxygenase [5] is “capacity of inhibiting the enzymes cyclooxygenase and prostaglandine-synthetase”. In addition, the “capacity of inhibiting prostaglandine-synthetase” value in series [6] is “capacity of inhibiting the enzymes cyclooxygenase and prostaglandine-synthetase”.
